Counter-ions that a name gives are not always drawn.
Target: T1, pepsin (Sus scrofa, UniProt P00791)
T1 construct: purchased
Assay: Anti-peptic activity in vitro (bovine serum albumin as substrate)
Assay type: biochemical
Conditions: obtained graphically; read-out: ID50 (50% inhibiting dose) (converted)
Protocol: Anti-peptic activity of the compounds is tested in vitro according to V. K. Thiemer (Arznei-Forsch 22 (6), PP. 1086, 1972), using bovine serum albumin as a substrate and commercially available pepsin.
Also ID50 (50% inhibiting dose) is obtained graphically.

T1 sequence (P00791 60-385): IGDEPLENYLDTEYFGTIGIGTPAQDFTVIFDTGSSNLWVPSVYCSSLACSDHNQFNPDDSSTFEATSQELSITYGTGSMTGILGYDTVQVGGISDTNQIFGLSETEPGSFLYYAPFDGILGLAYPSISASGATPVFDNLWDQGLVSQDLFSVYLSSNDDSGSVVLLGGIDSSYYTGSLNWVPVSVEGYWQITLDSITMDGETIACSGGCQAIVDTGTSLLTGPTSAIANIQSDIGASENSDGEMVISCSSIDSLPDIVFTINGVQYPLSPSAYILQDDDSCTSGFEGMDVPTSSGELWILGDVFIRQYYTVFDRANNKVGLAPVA

First: CCc1cc(S(=O)(=O)O)c2cc(C(C)C)cccc1-2 [compound 3, Sodium 3-ethyl-7-isopropyl-azulene sulfonate]
Second: CCc1cc(S(=O)(=O)O)c2ccc(C(C)C)ccc1-2 [compound 4, Sodium 3-ethyl-6-isopropyl-azulene sulfonate]
The IC50 of the first is 1.7-fold lower: 1.07 mM for the first, 1.83 mM for the second.

First: CC(C)=CCCC(C)c1cc(S(=O)(=O)O)c2cccccc1-2 (centres unmarked) [compound 5, Sodium 3-(1'-R, S-1',5'-dimethyl-4'-hexene) azulene sulfonate]
Second: Cc1cc(S(=O)(=O)O)c2c(C)ccc(C(C)C)cc1-2 [GAS, sodium guaiazulene-3-sulfonate, reference compound]
The IC50 of the first is 2.9-fold higher: 3.79 mM for the first, 1.29 mM for the second.

Same assay, conditions: sample concentration 0.125 mg/ml

`CCc1cc(S(=O)(=O)O)c2cc(C(C)C)cccc1-2` [compound 3, Sodium 3-ethyl-7-isopropyl-azulene sulfonate] and `CCc1cc(S(=O)(=O)O)c2ccc(C(C)C)ccc1-2` [compound 4, Sodium 3-ethyl-6-isopropyl-azulene sulfonate] are the same in inhibition at 125 µg/mL: 17.3% for the first, 17.3% for the second.

Compared with `CC(C)=CCCC(C)c1cc(S(=O)(=O)O)c2cccccc1-2` (centres unmarked) [compound 5, Sodium 3-(1'-R, S-1',5'-dimethyl-4'-hexene) azulene sulfonate], `Cc1cc(S(=O)(=O)O)c2c(C)ccc(C(C)C)cc1-2` [GAS, sodium guaiazulene-3-sulfonate, reference compound] is higher in inhibition at 125 µg/mL: 0.26% for the first, 14.6% for the second.

Same assay, conditions: sample concentration 0.250 mg/ml

First: CCc1cc(S(=O)(=O)O)c2cc(C(C)C)cccc1-2 [compound 3, Sodium 3-ethyl-7-isopropyl-azulene sulfonate]
Second: CCc1cc(S(=O)(=O)O)c2ccc(C(C)C)ccc1-2 [compound 4, Sodium 3-ethyl-6-isopropyl-azulene sulfonate]
The inhibition at 250 µg/mL of the first is higher: 47.6% for the first, 28.9% for the second.

Compared with `CC(C)=CCCC(C)c1cc(S(=O)(=O)O)c2cccccc1-2` (centres unmarked) [compound 5, Sodium 3-(1'-R, S-1',5'-dimethyl-4'-hexene) azulene sulfonate], `Cc1cc(S(=O)(=O)O)c2c(C)ccc(C(C)C)cc1-2` [GAS, sodium guaiazulene-3-sulfonate, reference compound] is higher in inhibition at 250 µg/mL: 3.57% for the first, 50.4% for the second.

Same assay, conditions: sample concentration 0.500 mg/ml

First: CCc1cc(S(=O)(=O)O)c2cc(C(C)C)cccc1-2 [compound 3, Sodium 3-ethyl-7-isopropyl-azulene sulfonate]
Second: CCc1cc(S(=O)(=O)O)c2ccc(C(C)C)ccc1-2 [compound 4, Sodium 3-ethyl-6-isopropyl-azulene sulfonate]
The inhibition at 500 µg/mL of the first is lower: 63.6% for the first, 65.7% for the second.

Compared with `CC(C)=CCCC(C)c1cc(S(=O)(=O)O)c2cccccc1-2` (centres unmarked) [compound 5, Sodium 3-(1'-R, S-1',5'-dimethyl-4'-hexene) azulene sulfonate], `Cc1cc(S(=O)(=O)O)c2c(C)ccc(C(C)C)cc1-2` [GAS, sodium guaiazulene-3-sulfonate, reference compound] is higher in inhibition at 500 µg/mL: 24.5% for the first, 58.6% for the second.

Same assay, conditions: sample concentration 1.000 mg/ml

First: CCc1cc(S(=O)(=O)O)c2cc(C(C)C)cccc1-2 [compound 3, Sodium 3-ethyl-7-isopropyl-azulene sulfonate]
Second: CCc1cc(S(=O)(=O)O)c2ccc(C(C)C)ccc1-2 [compound 4, Sodium 3-ethyl-6-isopropyl-azulene sulfonate]
The inhibition at 1000 µg/mL of the first is higher: 97.1% for the first, 55.8% for the second.

Compared with `CC(C)=CCCC(C)c1cc(S(=O)(=O)O)c2cccccc1-2` (centres unmarked) [compound 5, Sodium 3-(1'-R, S-1',5'-dimethyl-4'-hexene) azulene sulfonate], `Cc1cc(S(=O)(=O)O)c2c(C)ccc(C(C)C)cc1-2` [GAS, sodium guaiazulene-3-sulfonate, reference compound] is higher in inhibition at 1000 µg/mL: 50.4% for the first, 75.1% for the second.

System: not listed separately
Assay: Stability on storage (% residue of the original compound)
Assay type: physicochemical
Conditions: 40° C., 96 hours
From the text: The data are expressed in % residue of the original compounds after the storage in each condition.

`CCc1cc(S(=O)(=O)O)c2cc(C(C)C)cccc1-2` [compound 3, Sodium 3-ethyl-7-isopropyl-azulene sulfonate] and `Cc1cc(S(=O)(=O)O)c2c(C)ccc(C(C)C)cc1-2` [GAS, sodium guaiazulene-3-sulfonate, reference compound] are the same in remaining at 96 h: 100% for the first, 100% for the second.

Same assay, conditions: 60° C., 192 hours

Going from `CCc1cc(S(=O)(=O)O)c2cc(C(C)C)cccc1-2` [compound 3, Sodium 3-ethyl-7-isopropyl-azulene sulfonate] to `Cc1cc(S(=O)(=O)O)c2c(C)ccc(C(C)C)cc1-2` [GAS, sodium guaiazulene-3-sulfonate, reference compound], the remaining at 192 h falls from 100% to 51.3%.

Same assay, conditions: 70° C., 240 hours

Going from `CCc1cc(S(=O)(=O)O)c2cc(C(C)C)cccc1-2` [compound 3, Sodium 3-ethyl-7-isopropyl-azulene sulfonate] to `Cc1cc(S(=O)(=O)O)c2c(C)ccc(C(C)C)cc1-2` [GAS, sodium guaiazulene-3-sulfonate, reference compound], the remaining at 240 h falls from 100% to 9.3%.

Same assay, conditions: 80° C., 288 hours

Going from `CCc1cc(S(=O)(=O)O)c2cc(C(C)C)cccc1-2` [compound 3, Sodium 3-ethyl-7-isopropyl-azulene sulfonate] to `Cc1cc(S(=O)(=O)O)c2c(C)ccc(C(C)C)cc1-2` [GAS, sodium guaiazulene-3-sulfonate, reference compound], the remaining at 288 h falls from 100% to 1.5%.

Same assay, conditions: compared with sodium guaiazulene sulfonate

In the case of `CCc1cc(S(=O)(=O)O)c2cc(C(C)C)cccc1-2` [compound 3, Sodium 3-ethyl-7-isopropyl-azulene sulfonate], the “stability, in words” value is reported as “greatly improved”.

System: not listed separately
Assay: Acute toxicity (Litchfield & Wilcoxon method)
Conditions: rat, in vivo, ip, I.P., female; 95% confidence limits
Protocol: The acute toxicity of Compound 3 is determined by Litchfield & Wilcoxon method using SD rats.

`CCc1cc(S(=O)(=O)O)c2cc(C(C)C)cccc1-2` [compound 3, Sodium 3-ethyl-7-isopropyl-azulene sulfonate] gave an LD50 of 180 mg/kg.

Same assay, conditions: rat, in vivo, ip, I.P., male; 95% confidence limits

Work on `CCc1cc(S(=O)(=O)O)c2cc(C(C)C)cccc1-2` [compound 3, Sodium 3-ethyl-7-isopropyl-azulene sulfonate] yielded an LD50 of 165 mg/kg.

Same assay, conditions: rat, in vivo, iv, I.V., female; 95% confidence limits

For `CCc1cc(S(=O)(=O)O)c2cc(C(C)C)cccc1-2` [compound 3, Sodium 3-ethyl-7-isopropyl-azulene sulfonate], the LD50 was 153 mg/kg.

Same assay, conditions: rat, in vivo, iv, I.V., male

For `CCc1cc(S(=O)(=O)O)c2cc(C(C)C)cccc1-2` [compound 3, Sodium 3-ethyl-7-isopropyl-azulene sulfonate], the LD50 was 130 mg/kg.

Same assay, conditions: rat, in vivo, po, P.O., female; 95% confidence limits

With `CCc1cc(S(=O)(=O)O)c2cc(C(C)C)cccc1-2` [compound 3, Sodium 3-ethyl-7-isopropyl-azulene sulfonate] the LD50 was 1200 mg/kg.

Same assay, conditions: rat, in vivo, po, P.O., male; 95% confidence limits

For `CCc1cc(S(=O)(=O)O)c2cc(C(C)C)cccc1-2` [compound 3, Sodium 3-ethyl-7-isopropyl-azulene sulfonate], the LD50 was 1000 mg/kg.

System: Shay's rat
Assay: Anti-ulcerative activity, pylorus ligation (Shay's rat)
Assay type: in vivo
Conditions: 100 mg/kg, perorally, 16 hours after ligation
Protocol: In order to ascertain the anti-ulcerative activity […], Shay's rat (Gastro enterology 26, P. 906) is selected. Rats are fasted for 48 hours and pylorus ligation is carried out under light anesthesia. Drug is given perorally. 16 hours after ligation the animals are sacrificed and the stomach is removed. The induced erosion is measured in area and scored as ulcer index (U.I.). The data are expressed as % inhibition to the control value from the equation described below.

In the case of `Cc1cc(S(=O)(=O)O)c2cc(C(C)C)cccc1-2` [compound 13, Sodium 3-methyl-7-isopropyl-azulene sulfonate], the “% inhibition (ulcer index)” value is reported as 69.7%.

Same assay, conditions: Rattus norvegicus, po, 16 h, 100 mg/kg, perorally, 16 hours after ligation; read-out: % inhibition (ulcer index)

Going from `CCCCc1cc(S(=O)(=O)O)c2ccccc(OC)c1-2` [compound 27, Sodium 4-methoxy-3-butyl-azulene sulfonate] to `CCCCCc1cc(S(=O)(=O)O)c2ccccc(OC)c1-2` [compound 28, Sodium 4-methoxy-3-pentyl-azulene sulfonate], the inhibition in vivo at 100 mg/kg falls from 66.3% to 42%.

Going from `CCc1cc(S(=O)(=O)O)c2cc(C(C)C)ccc(OC)c1-2` [compound 31, Sodium 7-isopropyl-4-methoxy-3-ethyl-azulene sulfonate] to `CCCc1cc(S(=O)(=O)O)c2cc(C(C)C)ccc(OC)c1-2` [compound 32, Sodium 7-isopropyl-4-methoxy-3-propyl-azulene sulfonate], the inhibition in vivo at 100 mg/kg falls from 67.6% to 44.1%.

Going from `CCCCCc1cc(S(=O)(=O)O)c2cccccc1-2` [compound 15, Sodium 3-n-pentyl-azulene sulfonate] to `CCCCc1cc(S(=O)(=O)O)c2cccccc1-2` [compound 14, Sodium 3-n-butyl-azulene sulfonate], the inhibition in vivo at 100 mg/kg falls from 64.3% to 32.7%.

Compared with `CC(C)=CCC[C@@H](C)c1cc(S(=O)(=O)O)c2cc(C(C)C)cccc1-2` [compound 21, Sodium 7-isopropyl-3-(1'-R-1',5'-dimethyl-4'-hexene)-azulene sulfonate], `CC(C)=CCC[C@H](C)c1cc(S(=O)(=O)O)c2cc(C(C)C)cccc1-2` [compound 22, Sodium 7-isopropyl-3-(1'-S-1',5'-dimethyl-4'-hexene)-azulene sulfonate] is lower in inhibition in vivo at 100 mg/kg: 14.5% for the first, -19.5% for the second.

Compared with `CCCCc1cc(S(=O)(=O)O)c2cc(C(C)C)cccc1-2` [compound 18, Sodium 7-isopropyl-3-n-butyl-azulene sulfonate], `CCCCCc1cc(S(=O)(=O)O)c2cc(C(C)C)cccc1-2` [compound 19, Sodium 7-isopropyl-3-n-pentyl-azulene sulfonate] is lower in inhibition in vivo at 100 mg/kg: 17.2% for the first, -56.3% for the second.

Going from `COc1ccccc2c(S(=O)(=O)O)cc(C)c1-2` [compound 24, Sodium 4-methoxy-3-methyl-azulene sulfonate] to `CCc1cc(S(=O)(=O)O)c2ccccc(OC)c1-2` [compound 25, Sodium 4-methoxy-3-ethyl-azulene sulfonate], the inhibition in vivo at 100 mg/kg rises from 63.4% to 75.6%.

First: CC(C)c1cccc2c(Cc3ccccc3)cc(S(=O)(=O)O)c-2c1 [compound 23, Sodium 7-isopropyl-3-benzyl-azulene sulfonate]
Second: CCc1cc(S(=O)(=O)O)c2cc(C(C)C)cccc1-2 [compound 38, 7-isopropyl-3-ethyl-azulene sulfonic acid aluminum salt]
The inhibition in vivo at 100 mg/kg of the first is lower: 9.8% for the first, 40.3% for the second.

Compared with `CC(C)=CCCC(C)c1cc(S(=O)(=O)O)c2cc(C(C)C)cccc1-2` (centres unmarked) [compound 20, Sodium 7-isopropyl-3-(1'-R, S-1',5'-dimethyl-4'-hexene)-azulene sulfonate], `Cc1cc(S(=O)(=O)O)c2cc(C(C)C)cccc1-2` [compound 37, 7-isopropyl-3-methyl-azulene sulfonic acid aluminum salt] is higher in inhibition in vivo at 100 mg/kg: 43.8% for the first, 58.4% for the second.

First: CCCCCCc1cc(S(=O)(=O)O)c2ccccc(OC)c1-2 [compound 29, Sodium 4-methoxy-3-hexyl-azulene sulfonate]
Second: CCCc1cc(S(=O)(=O)O)c2ccccc(OC)c1-2 [compound 26, Sodium 4-methoxy-3-propyl-azulene sulfonate]
The inhibition in vivo at 100 mg/kg of the first is lower: 38% for the first, 75.6% for the second.

Compared with `CCCCc1cc(S(=O)(=O)O)c2cc(C(C)C)ccc(OC)c1-2` [compound 33, Sodium 7-isopropyl-4-methoxy-3-butyl-azulene sulfonate], `CCCCCc1cc(S(=O)(=O)O)c2cc(C(C)C)ccc(OC)c1-2` [compound 34, Sodium 7-isopropyl-4-methoxy-3-pentyl-azulene sulfonate] is lower in inhibition in vivo at 100 mg/kg: 64.8% for the first, -14.6% for the second.

First: Cc1cc(S(=O)(=O)O)c2cccccc1-2 [compound 35, 3-methyl-azulene sulfonic acid aluminum salt]
Second: CCc1cc(S(=O)(=O)O)c2cccccc1-2 [compound 36, 3-ethyl-azulene sulfonic acid aluminum salt]
The inhibition in vivo at 100 mg/kg of the first is lower: 16.5% for the first, 28.6% for the second.

Going from `CCCc1cc(S(=O)(=O)O)c2cccccc1-2` [compound 12, Sodium 3-propyl-azulene sulfonate] to `CCCc1cc(S(=O)(=O)O)c2cc(C(C)C)cccc1-2` [compound 17, Sodium 7-isopropyl-3-n-propyl-azulene sulfonate], the inhibition in vivo at 100 mg/kg falls from 78.5% to 31.2%.

Compared with `COc1ccc(C(C)C)cc2c(S(=O)(=O)O)cc(C)c1-2` [compound 30, Sodium 7-isopropyl-4-methoxy-3-methyl-azulene sulfonate], `CC(C)c1cccc2c(S(=O)(=O)O)ccc-2c1` [compound 16, Sodium 5-isopropyl-azulene sulfonate] is higher in inhibition in vivo at 100 mg/kg: 58.7% for the first, 62% for the second.

Same assay, conditions: Rattus norvegicus, po, 16 h, 500 mg/kg, perorally, 16 hours after ligation; read-out: % inhibition (ulcer index)

`CCc1cc(S(=O)(=O)O)c2cc(C(C)C)cccc1-2` [compound 3, Sodium 3-ethyl-7-isopropyl-azulene sulfonate] and `CCc1cc(S(=O)(=O)O)c2ccc(C(C)C)ccc1-2` [compound 4, Sodium 3-ethyl-6-isopropyl-azulene sulfonate] are the same in inhibition in vivo at 500 mg/kg: 100% for the first, 100% for the second.

Going from `CC(C)=CCCC(C)c1cc(S(=O)(=O)O)c2cccccc1-2` (centres unmarked) [compound 5, Sodium 3-(1'-R, S-1',5'-dimethyl-4'-hexene) azulene sulfonate] to `CC(C)=CCC[C@H](C)c1cc(S(=O)(=O)O)c2cccccc1-2` [compound 8, Sodium 3-(1'-S-1',5'-dimethyl-4'-hexene)-azulene sulfonate], the inhibition in vivo at 500 mg/kg falls from 95.5% to 69.9%.

Compared with `Cc1cc(S(=O)(=O)O)c2cccccc1-2` [compound 1, Sodium 3-methyl-azulene sulfonate], `CCc1cc(S(=O)(=O)O)c2cccccc1-2` [compound 2, Sodium 3-ethyl-azulene sulfonate] is higher in inhibition in vivo at 500 mg/kg: 52.4% for the first, 100% for the second.

— patent publication US4595694A, “Azulene derivatives, processes of their synthesis and their uses as anti-ulcerative and anti-inflammatory agents” (Kotobuki Seiyaku Co. Ltd., priority 1983, dated 1986)
